According to the supplement of paper PMC11208160:

Assay: recombinant UMI read abundance after kanamycin selection (control-corrected) (log10(CPM+1)); higher = more efficient recombination; extreme values may be limits of the assay; sequences stand for … in AGTGCAGAGAAAATCGGCCAGTTTTCTCTGCCTGCAGTCCGCATGCCGTGGGACCCCTTGGGTTCTAACCTGTTGCCTAGATTTATGCAGCGGACTGCCTTTCTCCCAAAGTGATAAACCGG…AGGTTGGTTTCACT; site = the 11-nt donor
Procedure, shortened: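 Values, expressed as log10(CPM+1), derive from recombinant UMI counts converted to CPM, averaged across replicates and scaled by control-derived factors. Plating was with IPTG (0.07 mM) plus kanamycin or unselected, two replicates each. The screen pooled donor and donor-binding-loop pairs for the IS621 bridge recombinase in Escherichia coli.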
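Also: IS621 bridge recombinase in Escherichia coli cells against a fixed T5 target plasmid.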

| Sequence | recombinant UMI read abundance (log10) |
| --- | --- |
| ATGGCCGCATGGACCGGTTTTCCCGGTAATCCGTATTTGGC (site ATGGCCGCTGC) | 2.53 |
| ATGGTCCCATGGACCGGTTTTCCCGGTAATCCGTATTTGAC (site ATGGTCCCTGT) | 1.87 |
| ATGGTCGCATGGACCGGTTTTCCCGGTAATCCGTATTTGAC (site ATGGTCGCTGT) | 3.13 |
| ATGTACACATGGACCGGTTTTCCCGGTAATCCGTATTTGAG (site ATGTACACTCT) | 1.6 |
| ATGTAGGCATGGACCGGTTTTCCCGGTAATCCGTATTTGGT (site ATGTAGGCTAC) | 1.27 |
| ATGTAGGCATGGACCGGTTTTCCCGGTAATCCGTATTTGGT (site ATGTAGGCTCC) | 0.0125 |
| ATGTAGGCATGGACCGGTTTTCCCGGTAATCCGTATTTGGT (site ATGTAGGCTGC) | 1.73 |
| ATGTAGGCATGGACCGGTTTTCCCGGTAATCCGTATTTGGT (site ATGTAGGCTTC) | 0.0176 |
| ATGTCGCCATGGACCGGTTTTCCCGGTAATCCGTATTTGCC (site ATGTCGCCTGG) | 0 |
| ATGTCGGCATGGACCGGTTTTCCCGGTAATCCGTATTTGTC (site ATGTCGGCTGA) | 2.23 |
| ATGTGGACATGGACCGGTTTTCCCGGTAATCCGTATTTGAC (site ATGTGGACTGT) | 2.94 |
| ATGTGGGCATGGACCGGTTTTCCCGGTAATCCGTATTTGGC (site ATGTAGGCTGC) | 2.78 |
| ATGTGGGCATGGACCGGTTTTCCCGGTAATCCGTATTTGGC (site ATGTCGGCTGC) | 0 |
| ATGTGGGCATGGACCGGTTTTCCCGGTAATCCGTATTTGGC (site ATGTGGGCTGC) | 3.01 |
| ATGTGGGCATGGACCGGTTTTCCCGGTAATCCGTATTTGGC (site ATGTTGGCTGC) | 0.0921 |
| ATGTGTGCATGGACCGGTTTTCCCGGTAATCCGTATTTGAC (site ATGTGTGCTGT) | 2.78 |
| ATGTTACCATGGACCGGTTTTCCCGGTAATCCGTATTTGGT (site ATGTTACCTAC) | 0.0171 |
| ATTACGGCATGGACCGGTTTTCCCGGTAATCCGTATTTGGA (site ATTACGGCTTC) | 0.269 |
| ATTACTTCATGGACCGGTTTTCCCGGTAATCCGTATTTGGG (site ATTACTTCTCC) | 0.434 |
| ATTAGAACATGGACCGGTTTTCCCGGTAATCCGTATTTGGC (site ATTAGAACTGC) | 1.83 |
| ATTAGAACATGGACCGGTTTTCCCGGTAATCCGTATTTGGC (site CTTAGAACTGC) | 1.73 |
| ATTAGAACATGGACCGGTTTTCCCGGTAATCCGTATTTGGC (site GTTAGAACTGC) | 0 |
| ATTAGAACATGGACCGGTTTTCCCGGTAATCCGTATTTGGC (site TTTAGAACTGC) | 1.19 |
| ATTAGTGCATGGACCGGTTTTCCCGGTAATCCGTATTTGGT (site AATAGTGCTAC) | 0.125 |
| ATTAGTGCATGGACCGGTTTTCCCGGTAATCCGTATTTGGT (site ACTAGTGCTAC) | 0.675 |

| Sequence | recombinant UMI read abundance (log10) |
| --- | --- |
| ATTAGTGCATGGACCGGTTTTCCCGGTAATCCGTATTTGGT (site AGTAGTGCTAC) | 0.243 |
| ATTAGTGCATGGACCGGTTTTCCCGGTAATCCGTATTTGGT (site ATTAGTGCTAC) | 1.05 |
| ATTCCGGCATGGACCGGTTTTCCCGGTAATCCGTATTTGCT (site ATTCCGGCTAG) | 0.0043 |
| ATTCGAACATGGACCGGTTTTCCCGGTAATCCGTATTTGTT (site ATTCGAACTAA) | 0.18 |
| ATTCGTGCATGGACCGGTTTTCCCGGTAATCCGTATTTGAT (site ATTCGTGCTAT) | 0.866 |
| ATTCGTGCATGGACCGGTTTTCCCGGTAATCCGTATTTGTA (site ATTCGTGCTTA) | 0.657 |
| ATTCGTGCATGGACCGGTTTTCCCGGTAATCCGTATTTGTG (site ATTCGTGCTCA) | 0.309 |
| ATTCTTACATGGACCGGTTTTCCCGGTAATCCGTATTTGGT (site ATTCTTACTAC) | 0.37 |
| ATTGTATCATGGACCGGTTTTCCCGGTAATCCGTATTTGAG (site ATTGTATCTCT) | 1.59 |
| ATTTAAACATGGACCGGTTTTCCCGGTAATCCGTATTTGAC (site ATTTAAACTGT) | 1.18 |
| ATTTAGACATGGACCGGTTTTCCCGGTAATCCGTATTTGGT (site ATTAAGACTAC) | 0.513 |
| ATTTAGACATGGACCGGTTTTCCCGGTAATCCGTATTTGGT (site ATTCAGACTAC) | 0.475 |
| ATTTAGACATGGACCGGTTTTCCCGGTAATCCGTATTTGGT (site ATTGAGACTAC) | 0.0177 |
| ATTTAGACATGGACCGGTTTTCCCGGTAATCCGTATTTGGT (site ATTTAGACTAC) | 0.955 |
| ATTTAGGCATGGACCGGTTTTCCCGGTAATCCGTATTTGGC (site ATATAGGCTGC) | 1.64 |
| ATTTAGGCATGGACCGGTTTTCCCGGTAATCCGTATTTGGC (site ATCTAGGCTGC) | 0.928 |
| ATTTAGGCATGGACCGGTTTTCCCGGTAATCCGTATTTGGC (site ATGTAGGCTGC) | 0.42 |
| ATTTAGGCATGGACCGGTTTTCCCGGTAATCCGTATTTGGC (site ATTTAGGCTGC) | 1.93 |
| ATTTATTCATGGACCGGTTTTCCCGGTAATCCGTATTTGAG (site ATTTATTCTCT) | 1.61 |
| ATTTCACCATGGACCGGTTTTCCCGGTAATCCGTATTTGGC (site ATTTCACCTGC) | 0 |
| ATTTCTACATGGACCGGTTTTCCCGGTAATCCGTATTTGTC (site ATTTCTACTGA) | 0.00552 |
| ATTTGAGCATGGACCGGTTTTCCCGGTAATCCGTATTTGCG (site ATTTGAGCTCG) | 0.336 |
| ATTTGTTCATGGACCGGTTTTCCCGGTAATCCGTATTTGGA (site ATTTGTTCTTC) | 1.4 |
| CAAAAGCCATGGACCGGTTTTCCCGGTAATCCGTATTTGTC (site CAAAAGCCTGA) | 0 |
| CAAAATACATGGACCGGTTTTCCCGGTAATCCGTATTTGGC (site CAAAATACTGC) | 0 |

| Sequence | recombinant UMI read abundance (log10) |
| --- | --- |
| CAAACACCATGGACCGGTTTTCCCGGTAATCCGTATTTGAC (site CAAACACCTGT) | 0.00914 |
| CAAACGACATGGACCGGTTTTCCCGGTAATCCGTATTTGTT (site CAAACGACTAA) | 1.41 |
| CAAAGCTCATGGACCGGTTTTCCCGGTAATCCGTATTTGAA (site CAAAGCTCTTT) | 3.18 |
| CAAAGCTCATGGACCGGTTTTCCCGGTAATCCGTATTTGAA (site CAACGCTCTTT) | 0.0122 |
| CAAAGCTCATGGACCGGTTTTCCCGGTAATCCGTATTTGAA (site CAAGGCTCTTT) | 0.579 |
| CAAAGCTCATGGACCGGTTTTCCCGGTAATCCGTATTTGAA (site CAATGCTCTTT) | 0.0194 |
| CAAATACCATGGACCGGTTTTCCCGGTAATCCGTATTTGAC (site CAAATACCTGT) | 0 |
| CAAATCCCATGGACCGGTTTTCCCGGTAATCCGTATTTGGA (site CAAATCCCTTC) | 0.334 |
| CAAATCTCATGGACCGGTTTTCCCGGTAATCCGTATTTGCA (site CAAATCTCTTG) | 1.85 |
| CAACAACCATGGACCGGTTTTCCCGGTAATCCGTATTTGAA (site CAACAACCTTT) | 0.102 |
| CAACACACATGGACCGGTTTTCCCGGTAATCCGTATTTGTG (site CAACACACTCA) | 0.834 |
| CAACGCTCATGGACCGGTTTTCCCGGTAATCCGTATTTGAA (site CAAAGCTCTTT) | 0.00291 |
| CAACGCTCATGGACCGGTTTTCCCGGTAATCCGTATTTGAA (site CAACGCTCTTT) | 2.06 |
| CAACGCTCATGGACCGGTTTTCCCGGTAATCCGTATTTGAA (site CAAGGCTCTTT) | 0.00387 |
| CAACGCTCATGGACCGGTTTTCCCGGTAATCCGTATTTGAA (site CAATGCTCTTT) | 0.0343 |
| CAACTCCCATGGACCGGTTTTCCCGGTAATCCGTATTTGCT (site CAAATCCCTAG) | 0.818 |
| CAACTCCCATGGACCGGTTTTCCCGGTAATCCGTATTTGCT (site CAACTCCCTAG) | 1.86 |
| CAACTCCCATGGACCGGTTTTCCCGGTAATCCGTATTTGCT (site CAAGTCCCTAG) | 0.00625 |
| CAACTCCCATGGACCGGTTTTCCCGGTAATCCGTATTTGCT (site CAATTCCCTAG) | 0.765 |
| CAACTTTCATGGACCGGTTTTCCCGGTAATCCGTATTTGGT (site CAACTTTCTAC) | 0.82 |
| CAAGATTCATGGACCGGTTTTCCCGGTAATCCGTATTTGTT (site AAAGATTCTAA) | 0 |
| CAAGATTCATGGACCGGTTTTCCCGGTAATCCGTATTTGTT (site CAAGATTCTAA) | 3.22 |
| CAAGATTCATGGACCGGTTTTCCCGGTAATCCGTATTTGTT (site GAAGATTCTAA) | 0 |
| CAAGATTCATGGACCGGTTTTCCCGGTAATCCGTATTTGTT (site TAAGATTCTAA) | 0.464 |
| CAAGCGCCATGGACCGGTTTTCCCGGTAATCCGTATTTGCG (site CAAGCGCCTCA) | 0.0343 |
